Data: patent US20210122780A1, “COMPOSITIONS FOR THE PREVENTION AND TREATMENT OF PARKINSON'S DISEASE” (Metselex, Inc., priority 2018, published 2021)

Experiments:
Primary rat hepatocytes = test: Cell viability and apoptosis assays, TGF-β1-exposed hepatocytes; format: cell-based; conditions: 100 μM, with or without 3 U/ml alkaline phosphatase, TGF-β1 24 h
Protocol: Cell culture and treatments. Primary rat hepatocytes were isolated from male rats (100-150 g) by collagenase perfusion. Briefly, rats were anesthetized with phenobarbital sodium (100 mg/kg body weight) injected into the peritoneal cavity. After administration of heparin (200 units/kg body weight) in the tail vein, the animals' abdomen was opened and the portal vein exposed and cannulated. The liver was then perfused at 37° C. in situ with a calcium-free Hanks' Balanced Salt Solution (HBSS) for ˜10 min, and then with 0.05% collagenase type IV in calcium-present HBSS for another 10 min. […] Cell viability was determined by trypan blue exclusion and was typically 80-85%. […]
Cell viability assays. […] Finally, absorbance was measured at 490 nm, with 690 nm as reference, using a Bio-Rad model 680-microplate reader (Bio-Rad Laboratories, Hercules, Calif., USA).
To assess cellular viability, the CellTiter-Fluor™ viability assay was used (Promega Corp., Madison, Wis., USA). Briefly, viable cells are measured using a fluorogenic, cell-permeant, peptide substrate (Gly-Phe-AFC), which is cleaved by the live-cell protease activity to generate a fluorescent signal proportional to the number of living cells. Cells were incubated with an equal volume of CellTiter-Fluor™ Reagent for 30 min at 37° C. and resulting fluorescence (380-400 nmEx/505 nmEm) measured using a GloMax+ Multi Detection System (Promega Corp.). […]

[1] = test system: Alkaline phosphatase from bovine intestinal mucosa; test: Alkaline phosphatase activation of prodrugs (31P NMR); format: biochemical; conditions: in vitro, FIG. 5
Protocol: Alkaline phosphatase activation of prodrugs 3 and 19d. Alkaline phosphatase from bovine intestinal mucosa (Sigma-Aldrich, P5521-2KU) was dissolved in 2.0 mL of a 0.100 M sodium glycine buffer containing 1.0 mM ZnCl2 and 1.0 mM MgCl2. This stock solution was stored at 4° C. between uses.
Compound 19d (10.0 mg, 0.016 mmol) or compound 3 (8.7 mg, 0.016 mmol) were dissolved in 0.6 mL of a 0.100 M tris glycine buffer solution containing 1.0 mM ZnCl2 and 1.0 mM MgCl2. […] 50 μL of the previously prepared AP stock solution was further diluted by addition to 0.950 mL of a 0.100 M tris glycine buffer containing 1.0 mM ZnCl2 and 1.0 mM MgCl2. 10.0 μL of this diluted AP solution was added to the prodrug solution by syringe. A series of 42 inverse-gated decoupled ^31P NMR's were taken (24 scans each, approximately one minute acquisition time). Conversion (%) was determined from the relative integration of the starting material and product peaks, NMR time stamps were used to determine time. Each experiment was repeated three times.

## CC(CCC(=O)OCOP(=O)(O)O)C1CCC2C3C(O)CC4CC(O)CCC4(C)C3CCC12C (centres unmarked) [Compound 19, ursodeoxycholic acid phosphonooxymethoxy ester]
Primary rat hepatocytes
  anti-apoptotic potency in in vitro assays: highly active in these assays, but required activation by exogenous alkaline phosphatase
[1]
  rate of alkaline phosphatase catalyzed release of UDCA: faster than prodrug 3
